The text below walks through data of US20100254914A1, “NANOWORMS FOR IN VIVO TUMOR TARGETING” (THE REGENTS OF THE UNIVERSITY OF CALIFORNIA, priority 2009, published 2010).

Bridge positions count the residues as written; N and C are the ends. Ends that are not written are not given here.

Data set [1] relates to MDA-MB-435 cells. Briefly: In vitro cellular fluorescence imaging with heating, MDA-MB-435. It counts as cell-based, human. The settings on record: 20 min at 45° C. vs 37° C., then 2 hr at 37° C. On the procedure:
(§1) In vitro cellular fluorescence imaging. The cells were treated with 80 ug Fe/mL of Cy5.5 labeled control NWs or LyP1NWs per well for 20 min at 37° C. or 45° C. in the presence of 10% FBS and incubated for an additional 2 hr at 37° C. in the presence of 10% FBS. The cells were then rinsed three times with cell medium, fixed, stained, and imaged by fluorescence microscopy.

Data set [2] relates to C8161 cells. Kind of data set: In vitro cellular fluorescence imaging with heating, C8161. Format: cell-based. The settings on record: 20 min at 45° C. vs 37° C., then 2 hr at 37° C. As to the method:
as §1

Data set [3] relates to MDA-MB-435 tumors. Briefly: In vivo temperature-induced tumor targeting of magnetic nanoworms, MDA-MB-435. More on the design: species or system mice. The settings on record: 45° C. for 30 min, 24 hrs post-injection. On the procedure: In vivo temperature-induced tumor targeting of magnetic nanoworms. Mice bearing bilateral MDA-MB-435 human carcinoma tumors were intravenously injected with Cy7-labeled LyP1NWs or NWs and one flank of the mouse (containing one of the tumors) was immediately heated at 45° C. for 30 min in a temperature-controlled water bath. At 24 hrs post-injection, the tissues were harvested and the Cy7 fluorescence in tissues were imaged using NIR fluorescence imaging system (LI-COR Odyssey).

The test system of data set [4] is C8161 tumors. Briefly: In vivo temperature-induced tumor targeting of magnetic nanoworms, C8161. The arrangement: species or system mice. The settings on record: heated relative to unheated tumors.
A short description of data set [5]: Hydrodynamic size by dynamic light scattering. Format: physicochemical. The conditions noted are these: Table 1. The source says:
The nanostructure appears as linearly aggregated IO cores with a mean hydrodynamic size (in the long dimension) of 65 nm (FIG. 1a and Table 2). When a higher molecular mass dextran (40 kDa) was used branched IO cores were obtained, with a larger average size (˜100 nm) and a broader size distribution (FIG. 5). […] NW show a slightly larger saturation magnetization value (74.2 emu/gFe vs. 61.5 emu/gFe and 53.5 emu/gFe) and a higher MR contrast (R2=116 mMFe^−1S^−1 vs R2=70 mMFe^−1S^−1 and R2=95 mMFe^−1S^−1) than NS and Feridex (FIG. 1b). […]
Blood half-life and biodistribution. To quantify the in vivo circulation times of NW or NS samples in Nude BALB/c mice (n=3-4 for each formulation), heparinized capillary tubes (Fisher) were used to draw 15 μL (for fluorescence) or 70 μl (for magnetization) of blood from the periorbital plexus at different times after intravenous injection of the NW or NS samples (1, 3, or 10 mg Fe/kg body mass). […] For Cy7-labeled NW or NS formulations, blood extracted at different times was imaged in a 96-well plate in Cy7 channel (762 nm excitation/800 nm emission) with a NIR fluorescence scanner (LI-COR biosciences, NE, USA). The images were analyzed using the ImageJ (NIH) or Osirix (Apple) programs. […] Organs and blood were immediately weighed, freeze-dried in gelatin capsules, and then analyzed for magnetization using SQUID.

The test system of data set [6] is MDA-MB-435 tumors. Kind of data set: In vivo tumor homing, MDA-MB-435 xenograft. The arrangement: species or system Nude BALB/c mice. The settings on record: for tumor uptake / targeting efficiency: 24 hrs post-injection. As to the method: (§2) In vivo tumor homing. MDA-MB-435 human breast carcinoma cells or HT1080 human fibrosarcoma cells (1×10^6) were injected into the mammary fat pad or subcutaneously injected into Nude BALB/c mice, respectively. Tumors were used when they reached ˜0.5 cm in size. Some 0.2 cm or 1 cm tumors were used to compare the dependence of tumor size on NW homing. Cy7-labed or non-labeled NW or NS were intravenously injected into mice (n=3˜8 for each formulation) with a dose of 1 mg Fe/kg body mass (for fluorescence studies) and 3 mg Fe/kg body mass (for magnetization studies). For real-time observation of tumor/liver uptake, animals were imaged under anesthesia in Cy7 channel using the BonSai fluorescence-imaging system (Siemens, Pa., USA) 6 hrs, 24 hrs or 48 hrs after injection. For NIR fluorescence imaging of organs, animals were sacrificed 24 hrs after the injection by cardiac perfusion with PBS under anesthesia, and organs were dissected and imaged in Cy7 channel with a NIR fluorescence scanner (LI-COR biosciences, NE, USA). All the NIR images for animals or organs were taken at the same exposure time. To quantify the amount of NW or NS homing, collected tumors were weighed, freeze-dried in gelatin capsules, and then analyzed for magnetization using SQUID. For histologic analysis, frozen sections of tumors were prepared. The sections were fixed with 4% paraformaldehyde and stained with DAPI for observation of NW or NS only. The rat anti-mouse CD-31 (1:50, BD PharMingen) and biotinylated mouse fibrin(ogen) antiserum (1:50, Nordic) were used for immunochemicostaining of tumor tissue sections. The corresponding secondary antibodies were added and incubated for 1 hour at room temperature: AlexaFluor-594 goat anti-rat or rabbit IgG (1:1,000; Molecular Probes), streptavidin Alexa Fluor 594 (1:1000; Molecular Probes). The slides were washed three times with PBS and mounted in Vectashield Mounting Medium with DAPI. At least three images from representative microscopic fields were analyzed for each tumor sample.

Data set [7] relates to HT1080 tumors. Briefly: In vivo tumor homing, HT1080 xenograft. The arrangement: species or system Nude BALB/c mice. As to the method: as §2, with “For histologic analysis, frozen sections of tumors were prepared. The sections were fixed with 4% paraformaldehyde and stained with DAPI for observation of NW or NS only. The rat anti-mouse CD-31 (1:50, BD PharMingen) and biotinylated mouse fibrin(ogen) antiserum (1:50, Nordic) were used for immunochemicostaining of tumor tissue sections. The corresponding secondary antibodies were added and incubated for 1 hour at room temperature: AlexaFluor-594 goat anti-rat or rabbit IgG (1:1,000; Molecular Probes), streptavidin Alexa Fluor 594 (1:1000; Molecular Probes). The slides were washed three times with PBS and mounted in Vectashield Mounting Medium with DAPI.” left out

Data set [8] has as its target T1, p32 or gC1qR receptor (human, UniProt Q07021 74-282).
T1 construct: whole, on cells; Endogenous p32 on MDA-MB-435 cells and tumors, stained with an anti-p32 antibody; also called p32 receptors
T1 sequence (looked up): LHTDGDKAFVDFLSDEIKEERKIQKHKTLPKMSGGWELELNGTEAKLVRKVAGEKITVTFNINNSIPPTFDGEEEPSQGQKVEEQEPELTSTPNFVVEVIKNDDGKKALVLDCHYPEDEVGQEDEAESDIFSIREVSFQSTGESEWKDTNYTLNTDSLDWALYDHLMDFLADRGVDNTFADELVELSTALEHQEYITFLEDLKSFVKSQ
Briefly: fluorescence microscopy of MDA-MB-435 cells, colocalization with anti-p32 stain.

[9] abbreviates: compared with the other samples.

For the molecule “LyP1NWs: LyP-1 peptide attached to Cy5.5-labeled aminated NWs via PEG crosslinker, ~40 peptides per nanoworm (CGNKRTRGC; disulfide 1-9 (inferred); not fully specified; printed as Cys-Gly-Asn-Lys-Arg-Thr-Arg-Gly-Cys; also: extra Cys added for conjugation, position not given here)”, the results for the “binding and internalization upon heating” value in data set [1] and in data set [2] were “Significant quantities” and “lower heat-mediated internalization”, respectively. Besides, the “targeting to heated tumors” value in data set [3] was “prominent relative to unheated tumors”. In addition, the “homing to heated tumors” value in data set [4] was “not significantly different”.

“NW-P175-C: NW with 175 amines to which CREKA is conjugated through a PEG spacer, 60 peptides (not fully specified; also: CREKA conjugated through PEG spacer to nanoworm with 175 amines, 60 peptides (attachment site not given here))”: in data set [5], the “Size [nm] (mean hydrodynamic size)” value stood at 85.0 nm. The “tumor uptake / targeting efficiency” value in data set [6] is “significantly higher levels of uptake”; in data set [6] (listed as NW-P-175-C), “best”; in data set [7] (24 hrs post-injection), “best”. Besides, the “tumor:liver ratio (NIR fluorescence)” value in data set [6] (setting [9]) and in data set [7] (setting [9]) was “significant increases” each time.

For the molecule “NW-P-C: PEGylated CREKA-conjugated NW (family; ~60 CREKA peptides in the comparison) (not fully specified; also: CREKA conjugated via PEG to nanoworms (attachment site not given here))”, the “tumor uptake / targeting efficiency” value in data set [6] is “significantly greater”.

B1: LyP-1 peptide-conjugated magnetic nanoworms (LyP1NWs) (peptide)
peptide: CGNKRTRGC
modifications: disulfide 1-9 (inferred); not fully specified; printed as Cys-Gly-Asn-Lys-Arg-Thr-Arg-Gly-Cys; also: peptide is cyclic, conjugated via PEG crosslinker to Cy5.5-labeled dextran iron oxide nanoworm, extra Cys added for conjugation, position not given here
notes: also called Lyp1-conjugated Cy5.5-labeled magnetic nanoworms; LyP1-conjugated NWs
In the case of B1, the binding result in data set [8] is “binds”.
